“And” between values parts separate entries of the source, which are not always exact repeats. Identical values can stand only once. Like-named read-outs stand apart in the source and are kept apart here.
Molecular target: Human Constitutive (Hu C-20S) β5 Active Subunit (Homo sapiens, UniProt P28074)
Assay: IC50 determination, human constitutive 20S proteasome β5c (suc-LLVY-AMC hydrolysis)
Type: biochemical
[1] = Table 3, IC50 against human constitutive β5 active subunit, read-out: Hu-C20S β5

C[C@H](NC(=O)[C@H](CC(=O)N1CCCC[C@@H]1C)NC(=O)CC1CC1)c1ncc(-c2ccc(F)cc2F)[nH]1 [CEN-81, (S)-2-(2-Cyclopropylacetamido)-N—((S)-1-(5-(2,4-difluorophenyl)-1H-imidazol-2-yl)ethyl)-4-((S)-2-methylpiperidin-1-yl)-4-oxobutanamide]
IC50 [1]: 10.5 µM

C[C@H](NC(=O)[C@H](CC(=O)N1CCCC[C@@H]1C)NC(=O)C1CC2(C1)CC(F)(F)C2)c1nc2c(F)cccc2[nH]1 [CEN-57, 6,6-Difluoro-N—((S)-1-(((S)-1-(4-fluoro-1H-benzo[d]imidazol-2-yl)ethyl)amino)-4-((S)-2-methylpiperidin-1-yl)-1,4-dioxobutan-2-yl)spiro[3.3]heptane-2-carboxamide]
IC50 [1]: 28 µM

CC[C@H]1CCCCN1C(=O)C[C@H](NC(=O)c1cncs1)C(=O)N[C@@H](C)c1nc2c(F)cccc2[nH]1 [CEN-11, N—((S)-4-((S)-2-Ethylpiperidin-1-yl)-1-(((S)-1-(4-fluoro-1H-benzo[d]imidazol-2-yl)ethyl)amino)-1,4-dioxobutan-2-yl)thiazole-5-carboxamide]
IC50 [1]: 19.2 µM

C[C@H](NC(=O)[C@H](CC(=O)N1CCCC[C@@H]1C)NC(=O)CC1CCOCC1)c1ncc(Cc2ccccc2)[nH]1 [CEN-122, (S)—N—((S)-1-(5-Benzyl-1H-imidazol-2-yl)ethyl)-4-((S)-2-methylpiperidin-1-yl)-4-oxo-2-(2-(tetrahydro-2H-pyran-4-yl)acetamido)butanamide]
IC50 [1]: 13.5 µM

Cc1ccc(S(=O)(=O)N[C@@H](CC(=O)NC(C)(C)C)C(=O)NC2(c3nc4c(F)cccc4[nH]3)CC2)cc1 [CEN-69, (S)—N^4-(tert-Butyl)-N^1-(1-(4-fluoro-1H-benzo[d]Imidazol-2-yl)cyclopropyl)-2-((4-methylphenyl)sulfonamido)succinamide]
IC50 [1]: > 100 µM

CC[C@H]1CCCCN1C(=O)C[C@H](NC(=O)OCc1ccccc1)C(=O)N[C@@H](C)c1nc2c(F)cccc2[nH]1 [CEN-23, Benzyl ((S)-4-((S)-2-Ethylpiperidin-1-yl)-1-(((S)-1-(4-fluoro-1H-benzo[d]imidazol-2-yl)ethyl)amino)-1,4-dioxobutan-2-yl)carbamate]
IC50 [1]: 5.8 µM

Cc1cc(C(=O)N[C@@H](CC(=O)N2CCCC[C@@H]2C)C(=O)N[C@@H](C)c2ncc(-c3ccc(F)cc3)[nH]2)no1 [CEN-119, N—((S)-1-(((S)-1-(5-(4-Fluorophenyl)-1H-imidazol-2-yl)ethyl)amino)-4-((S)-2-methylpiperidin-1-yl)-1,4-dioxobutan-2-yl)-5-methylisoxazole-3-carboxamide]
IC50 [1]: 18 µM

C[C@H](NC(=O)[C@H](CC(=O)N1CCC[C@@H]1c1ccccc1)NC(=O)C1CC2(C1)CC(F)(F)C2)c1nc2ccccc2o1 [CEN-68, N—((S)-1-(((S)-1-(Benzo[d]oxazol-2-yl)ethyl)amino)-1,4-dioxo-4-((R)-2-phenylpyrrolidin-1-yl)butan-2-yl)-6,6-difluorospiro[3.3]heptane-2-carboxamide]
IC50 [1]: > 100 µM

CC(C)CCC(=O)N[C@@H](CC(=O)N1CCCCCC1)C(=O)N[C@@H](C)c1ncc(-c2ccc(F)cc2F)[nH]1 [CEN-90, N—((S)-4-(Azepan-1-yl)-1-(((S)-1-(5-(2,4-difluorophenyl)-1H-imidazol-2-yl)ethyl)amino)-1,4-dioxobutan-2-yl)-4-methylpentanamide]
IC50 [1]: 10.2 µM

C[C@H](NC(=O)[C@H](CC(=O)N1CCC[C@@H]1c1ccccc1)NC(=O)CCCC(F)(F)F)c1nc2ccccc2n1C [CEN-65, 5,5,5-Trifluoro-N—((S)-1-(((S)-1-(1-methyl-1H-benzo[d]imidazol-2-yl)ethyl)amino)-1,4-dioxo-4-((R)-2-phenylpyrrolidin-1-yl)butan-2-yl)pentanamide]
IC50 [1]: > 100 µM

CCC1CCCCN1C(=O)CC(NC(=O)CCC(C)C)C(=O)NC1CCCC1c1ncc(-c2ccc(F)cc2F)[nH]1 (centres unmarked) [CF-503292]
IC50 (Table 2, several values in a cell are repeat determinations, read-out: Hu c-20S IC50): 4.95 µM and 9.23 µM and 8.19 µM and 8.6 µM

C[C@H](NC(=O)[C@H](CC(=O)N1CCCC[C@@H]1C)NC(=O)CCC(C)(C)C)c1nc2c(F)cccc2[nH]1 [CEN-41, N—((S)-1-(((S)-1-(4-Fluoro-1H-benzo[d]Imidazol-2-yl)ethyl)amino)-4-((S)-2-methylpiperidin-1-yl)-1,4-dioxobutan-2-yl)-4,4-dimethylpentanamide]
IC50 [1]: 4.8 µM

C[C@H](NC(=O)[C@H](CC(=O)N1CCCC[C@@H]1C)NC(=O)c1cncs1)c1ncc(-c2ccc(F)cc2F)[nH]1 [CEN-98, N—((S)-1-(((S)-1-(5-(2,4-Difluorophenyl)-1H-imidazol-2-yl)ethyl)amino)-4-((S)-2-methylpiperidin-1-yl)-1,4-dioxobutan-2-yl)thiazole-5-carboxamide]
IC50 [1]: 7.1 µM

CC(C)C1CC1C(=O)N[C@@H](CC(=O)N1CCCC[C@@H]1C)C(=O)N[C@@H](C)c1ncc(-c2ccc(F)cc2F)[nH]1 (stereo partly drawn) [CEN-97, N—((S)-1-(((S)-1-(5-(2,4-Difluorophenyl)-1H-imidazol-2-yl)ethyl)amino)-4-((S)-2-methylpiperidin-1-yl)-1,4-dioxobutan-2-yl)-2-isopropylcyclopropane-1-carboxamide]
IC50 [1]: 4.8 µM

C[C@H](NC(=O)[C@H](CC(=O)N1CCCC[C@@H]1C)NC(=O)c1cn(C)cn1)c1ncc(-c2ccc(F)cc2F)[nH]1 [CEN-93, N—((S)-1-(((S)-1-(5-(2,4-Difluorophenyl)-1H-imidazol-2-yl)ethyl)amino)-4-((S)-2-methylpiperidin-1-yl)-1,4-dioxobutan-2-yl)-1-methyl-1H-imidazole-4-carboxamide]
IC50 [1]: 10.9 µM

CC(C)CCS(=O)(=O)N[C@@H](CC(=O)N1CCC[C@@H]1c1ccccc1)C(=O)N[C@@H](C)c1nc2ccccc2[nH]1 [CEN-59, (S)—N—((S)-1-(1H-Benzo[d]imidazol-2-yl)ethyl)-2-((3-methylbutyl)sulfonamido)-4-oxo-4-((R)-2-phenylpyrrolidin-1-yl)butanamide]
IC50 [1]: 10 µM

CC[C@H]1CCCCN1C(=O)C[C@H](NC(=O)NCc1ccccc1)C(=O)N[C@@H](C)c1nc2c(F)cccc2[nH]1 [CEN-21, (S)-2-(3-Benzylureido)-4-((S)-2-ethylpiperidin-1-yl)-N—((S)-1-(4-fluoro-1H-benzo[d]imidazol-2-yl)ethyl)-4-oxobutanamide]
IC50 [1]: 9.4 µM

C[C@H](NC(=O)[C@H](CC(=O)N1CCCC[C@@H]1C)Nc1nc2ccccc2o1)c1ncc(-c2ccc(F)cc2F)[nH]1 [CEN-109, (S)-2-(Benzo[d]oxazol-2-ylamino)-N—((S)-1-(5-(2,4-difluorophenyl)-1H-imidazol-2-yl)ethyl)-4-((S)-2-methylpiperidin-1-yl)-4-oxobutanamide]
IC50 [1]: 7.3 µM

C[C@H](NC(=O)[C@H](CC(=O)N1CCCC[C@@H]1C)NS(=O)(=O)CCC1CC1)c1ncc(-c2ccc(F)cc2F)[nH]1 [CEN-108, (S)-2-((2-Cyclopropylethyl)sulfonamido)-N—((S)-1-(5-(2,4-difluorophenyl)-1H-imidazol-2-yl)ethyl)-4-((S)-2-methylpiperidin-1-yl)-4-oxobutanamide]
IC50 [1]: 6.2 µM

CC[C@H]1CCCCN1C(=O)C[C@H](NC(=O)OCC(C)C)C(=O)N[C@@H](C)c1nc2c(F)cccc2[nH]1 [CEN-5, Isobutyl ((S)-4-((S)-2-Ethylpiperidin-1-yl)-1-(((S)-1-(4-fluoro-1H-benzo[d]imidazol-2-yl)ethyl)amino)-1,4-dioxobutan-2-yl)carbamate]
IC50 [1]: 2.5 µM

Reference: patent publication US11203613B2, “Peptidomimetic proteasome inhibitors” (CORNELL UNIVERSITY, priority 2017, dated 2021)
